From patent publication US20190119200A1, “TERTIARY AMIDES AND METHOD OF USE” (AbbVie Inc., priority 2016, published 2019)

Key:
LPAR1 = target: T1, LPAR1 (Homo sapiens, UniProt Q92633); assay: LPAR1 FLIPR Assay; type: cell-based; details: U2OS cells stably expressing LPAR1, LPA (EC80), Calcium 6 FLIPR dye; for Emax: read-out: Maximum Inhibition
T1 construct: host or cells: U2OS
Procedure, shortened: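 Calcium flux read-out (515-575 nm, FLIPR) in LPAR1-expressing U2OS cells after LPA challenge at EC80, given 3 min after compound addition; cells carried Calcium 6 dye loaded 2 h at 37° C. Eleven-point 3-fold dilutions were fitted with a four-parameter Hill equation for IC50.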

[1] = test system: LPA-induced MCP-1 in NRK-49F cells; assay: LPA-induced MCP-1 AlphaLISA assay; type: cell-based; details: Rattus norvegicus, final LPA 10 μM, 7 hours; for Emax: read-out: Maximum Inhibition
Protocol: Two days prior to the experiment, NRK-49F cells were plated at 8,000 cells/well in 100 μL of growth medium [DMEM (Life Technologies #11995) with 5% dFBS (Life Technologies #30067-334), 100 units/mL penicillin/streptomycin (Life Technologies #15140122)] in 96-well clear flat bottom polystyrene TC-treated microplate (Corning® #3599) and incubated in humidified 10% CO2 at 37° C. One day prior to the experiment, the cell medium was removed and serum free medium [100 μL/well, DMEM (Life Technologies #11995) with 0.1% fatty acid free BSA (Sigma #A6003)] was added with continued incubation in humidified 10% CO2 at 37° C. overnight. On the day of the assay, test compounds were 1:3 serially diluted in 100% DMSO using a BioTek Precision™ system and then transferred (equivalent volume of DMSO as controls) to a plate in serum free medium [DMEM with 0.1% fatty acid free BSA] using a Biomek® NX workstation to give a 2× compound solution. The cell culture medium was removed, and cells were pre-treated with 50 μL/well of 2× compound in serum free medium [DMEM with 0.1% fatty acid free BSA] at 37° C. for 30 minutes. Following the incubation, 50 μL/well of 20 μM LPA diluted in serum free medium [DMEM with 0.1% fatty acid free BSA] was added to the cells. Serum free medium [DMEM with 0.1% fatty acid free BSA] was used as substitution for low control wells while 20 µM LPA was added to high control wells and test compound wells. 200 µM LPA was added to EC100 wells. Final DMSO concentration was 1% in every well. Final LPA concentration in test compound wells and high control wells was 10 μM. […] After the incubation, cell supernatant was transferred to a new 96 well polypropylene plate (Greiner #651201) where it was sealed and stored at −80° C. On the detection day, 5 μL of thawed cell supernatant was transferred to a new white opaque 384-well microplate (Perkin Elmer #6007299). An AlphaLISA® mouse/rat CCL2/MCP1, Immunoassay Research kit (PerkinElmer #AL509F) was used. A mixture (20 μL/well) of AlphaLISA® Anti-Analyte Accept beads (10 μg/mL final) and Biotinylated Antibody Anti-Analyte (freshly prepared, 1 nM final) was added. The mixture in the wells was mixed and then incubated at room temperature for 1 hour. Then SA-Donor beads (25 μL/well, 40 μg/mL final) were added giving a final volume of 50 μL/well. The contents of the wells were mixed and then incubated at room temperature for 0.5 hour (protect from light). The plate was read using the default Envision™ Alpha protocol (PerkinElmer). IC50 values were calculated from curve fits of the ratio data using a four-parameter logistic Hill equation (Assay Explorer 3.3 Client).

T1 sequence (Q92633 whole entry): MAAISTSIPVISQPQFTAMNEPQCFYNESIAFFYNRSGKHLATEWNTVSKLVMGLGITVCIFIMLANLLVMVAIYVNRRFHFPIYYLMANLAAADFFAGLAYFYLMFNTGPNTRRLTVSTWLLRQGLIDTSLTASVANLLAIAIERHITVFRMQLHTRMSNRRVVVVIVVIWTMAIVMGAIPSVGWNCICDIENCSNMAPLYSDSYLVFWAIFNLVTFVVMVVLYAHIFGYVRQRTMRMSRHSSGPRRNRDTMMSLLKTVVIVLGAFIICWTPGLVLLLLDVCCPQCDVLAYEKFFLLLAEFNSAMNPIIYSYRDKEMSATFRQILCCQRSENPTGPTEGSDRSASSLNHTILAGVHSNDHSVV

IC50 (LPAR1)	Emax (LPAR1)	IC50 [1]	Compound	Emax [1]
333 nM	81%	> 10000 nM	O=C(O)CCCCN(CCCc1ccccc1)C(=O)C1CC(=O)Nc2cc(F)ccc21 (centres unmarked) [Example 170, 5-[(7-fluoro-2-oxo-1,2,3,4-tetrahydroquinoline-4-carbonyl)(3-phenylpropyl)amino]pentanoic Acid]	50%
635 nM	58%	> 10000 nM	Cc1ncc(Cl)c(C(=O)N(CCCCC(=O)O)CCCc2ccccc2)n1 [Example 167, 5-[(5-chloro-2-methylpyrimidine-4-carbonyl)(3-phenylpropyl)amino]pentanoic Acid]	25%
45 nM	73%	2030 nM	COc1cc(C(=O)N(CCCCC(=O)NS(=O)(=O)C(F)(F)F)CCCc2ccccc2)cc(OC)c1C [Example 150, 3,5-dimethoxy-4-methyl-N-{5-oxo-5-[(trifluoromethanesulfonyl)amino]pentyl}-N-(3-phenylpropyl)benzamide]	67%
47 nM	91%	994 nM	COc1cc(C(=O)N(CCCCC(=O)O)CCC(C)c2ccccc2)cc(OC)c1C (centres unmarked) [Example 182, 5-[(3,5-dimethoxy-4-methylbenzoyl)(3-phenylbutyl)amino]pentanoic Acid]	85%
3980 nM	61%	> 1300 nM	COc1cc(C(=O)N(CCCCC(=O)O)CCCc2ccccc2)ccc1Cl [Example 17, 5-[(4-chloro-3-methoxybenzoyl)(3-phenylpropyl)amino]pentanoic Acid]	65%
315 nM	77%	996 nM	COc1cc(C(=O)N(CCCc2ccccc2Cl)CCSCC(=O)O)cc(OC)c1C [Example 112, [(2-{[3-(2-chlorophenyl)propyl](3,5-dimethoxy-4-methylbenzoyl)amino}ethyl)sulfanyl]acetic Acid]	78%
> 30000 nM	37%	> 10000 nM	O=C(O)CCCCN(CCCc1ccccc1)C(=O)c1ccc2c(c1)OCO2 [Example 80, 5-[(2H-1,3-benzodioxole-5-carbonyl)(3-phenylpropyl)amino]pentanoic Acid]	37%
> 30000 nM	14%	> 10000 nM	COc1ccc(C(C)(C)C(=O)N(CCCCC(=O)O)CCCc2ccccc2)cc1 [Example 85, 5-{[2-(4-methoxyphenyl)-2-methylpropanoyl](3-phenylpropyl)amino}pentanoic Acid]	12%
39 nM	81%	5240 nM	COc1cc(C(=O)N(CCCc2ccccc2)C[C@H](O)CCC(=O)O)cc(OC)c1C [Example 120, (4R)-5-[(3,5-dimethoxy-4-methylbenzoyl)(3-phenylpropyl)amino]-4-hydroxypentanoic Acid]	65%
933 nM	70%	> 2180 nM	CC(=O)Nc1cc(C(=O)N(CCCCC(=O)O)CCCc2ccccc2)ccn1 [Example 171, 5-[(2-acetamidopyridine-4-carbonyl)(3-phenylpropyl)amino]pentanoic Acid]	30%
99 nM	99%	79 nM	COc1cc(C(=O)N(CCCc2ccccc2)CCCC(C)C(=O)NS(C)(=O)=O)cc(OC)c1C (centres unmarked) [Example 161, N-{5-[(methanesulfonyl)amino]-4-methyl-5-oxopentyl}-3,5-dimethoxy-4-methyl-N-(3-phenylpropyl)benzamide]	88%
81 nM	83%	1350 nM	COc1cc(C(=O)N(CCCCC(=O)NS(=O)(=O)c2ccncc2)CCCc2ccccc2)cc(OC)c1C [Example 143, 3,5-dimethoxy-4-methyl-N-{5-oxo-5-[(pyridine-4-sulfonyl)amino]pentyl}-N-(3-phenylpropyl)benzamide]	66%
78 nM	85%	3590 nM	COc1ccc(C2(C(=O)N(CCCCC(=O)O)CCCc3ccccc3)CC2)cc1Cl [Example 107, 5-{[1-(3-chloro-4-methoxyphenyl)cyclopropane-1-carbonyl](3-phenylpropyl)amino}pentanoic Acid]	71%
124 nM	87%	1010 nM	COc1cc(C(=O)N(CCCc2ccccc2)CCCC(Cc2ccccc2)C(=O)O)cc(OC)c1C (centres unmarked) [Example 52, 2-benzyl-5-[(3,5-dimethoxy-4-methylbenzoyl)(3-phenylpropyl)amino]pentanoic Acid]	77%
> 10000 nM	7%	> 10000 nM	COc1cc(C(=O)N(CCCc2cc(Cl)cc(Cl)c2)CCOCC(=O)O)cc(OC)c1C [Example 127, (2-{[3-(3,5-dichlorophenyl)propyl](3,5-dimethoxy-4-methylbenzoyl)amino}ethoxy)acetic Acid]	14%
59 nM	92%	1150 nM	COc1cc(C(=O)N(CCCCC(=O)NS(=O)(=O)C(C)C)CCCc2ccccc2)cc(OC)c1C [Example 124, 3,5-dimethoxy-4-methyl-N-{5-oxo-5-[(propane-2-sulfonyl)amino]pentyl}-N-(3-phenylpropyl)benzamide]	88%
> 30000 nM	39%	> 10000 nM	COc1cccc(C2(C(=O)N(CCCCC(=O)O)CCCc3ccccc3)CC2)c1 [Example 82, 5-{[1-(3-methoxyphenyl)cyclopropane-1-carbonyl](3-phenylpropyl)amino}pentanoic Acid]	2%
56 nM	98%	637 nM	CNS(=O)(=O)NC(=O)CCCCN(CCCc1ccccc1)C(=O)c1cc(OC)c(C)c(OC)c1 [Example 70, 3,5-dimethoxy-4-methyl-N-{5-[(methylsulfamoyl)amino]-5-oxopentyl}-N-(3-phenylpropyl)benzamide]	90%
> 10000 nM	15%	> 10000 nM	COc1cc(OC)cc(C(=O)N(CCCCC(=O)O)CCCc2cc(F)cc(F)c2)c1 [Example 136, 5-{[3-(3,5-difluorophenyl)propyl](3,5-dimethoxybenzoyl)amino}pentanoic Acid]	47%
76 nM	100%	7 nM	COc1cc(C(=O)N(CCCc2ccccc2)CCCC(C)(C)C(=O)NS(C)(=O)=O)cc(OC)c1C [Example 162, N-{5-[(methanesulfonyl)amino]-4,4-dimethyl-5-oxopentyl}-3,5-dimethoxy-4-methyl-N-(3-phenylpropyl)benzamide]	94%
94 nM	95%	2900 nM	CCC1CCC(NC(=O)CN(CCCc2ccccc2)C(=O)c2cc(OC)c(C)c(OC)c2)(C(=O)O)CC1 (centres unmarked) [Example 104, 1-{[N-(3,5-dimethoxy-4-methylbenzoyl)-N-(3-phenylpropyl)glycyl]amino}-4-ethylcyclohexane-1-carboxylic Acid]	74%
43 nM	96%	819 nM	CCCCC(CCCN(CCCc1ccccc1)C(=O)c1cc(OC)c(C)c(OC)c1)C(=O)O (centres unmarked) [Example 93, 2-{3-[(3,5-dimethoxy-4-methylbenzoyl)(3-phenylpropyl)amino]propyl}hexanoic Acid]	84%
99 nM	92%	1090 nM	COc1cc(C(=O)N(CCCCC(=O)NS(=O)(=O)c2ccccc2)CCCc2ccccc2)cc(OC)c1C [Example 144, N-{5-[(benzenesulfonyl)amino]-5-oxopentyl}-3,5-dimethoxy-4-methyl-N-(3-phenylpropyl)benzamide]	96%
